Measurements from ChEMBL document CHEMBL4507292 (2021).

Columns and labels:
[1] = biological target: Serine/threonine-protein kinase MARK1 (Homo sapiens) (UniProt Q9P0L2); conditions: Compound concentration 1000.0 nM
[2] = biological target: Mitogen-activated protein kinase kinase kinase kinase 3 (Homo sapiens) (UniProt Q8IVH8); conditions: Compound concentration 1000.0 nM
[3] = biological target: Casein kinase I isoform delta (Homo sapiens) (UniProt P48730); conditions: Compound concentration 1000.0 nM
[4] = biological target: Serine/threonine-protein kinase PLK2 (Homo sapiens) (UniProt Q9NYY3); conditions: Compound concentration 1000.0 nM
[5] = biological target: Cyclin-dependent kinase 9 (Homo sapiens) (UniProt P50750); conditions: Compound concentration 1000.0 nM
[6] = biological target: Mitogen-activated protein kinase 9 (Homo sapiens) (UniProt P45984); conditions: Compound concentration 1000.0 nM
[7] = biological target: TGF-beta receptor type-2 (Homo sapiens) (UniProt P37173); conditions: Compound concentration 1000.0 nM
[8] = biological target: Focal adhesion kinase 1 (Homo sapiens) (UniProt Q05397); conditions: Compound concentration 1000.0 nM
Insulin receptor = Insulin receptor (Homo sapiens, UniProt P06213); conditions: Compound concentration 1000.0 nM
Sequence of Insulin receptor (P06213 28-758 limits assumed): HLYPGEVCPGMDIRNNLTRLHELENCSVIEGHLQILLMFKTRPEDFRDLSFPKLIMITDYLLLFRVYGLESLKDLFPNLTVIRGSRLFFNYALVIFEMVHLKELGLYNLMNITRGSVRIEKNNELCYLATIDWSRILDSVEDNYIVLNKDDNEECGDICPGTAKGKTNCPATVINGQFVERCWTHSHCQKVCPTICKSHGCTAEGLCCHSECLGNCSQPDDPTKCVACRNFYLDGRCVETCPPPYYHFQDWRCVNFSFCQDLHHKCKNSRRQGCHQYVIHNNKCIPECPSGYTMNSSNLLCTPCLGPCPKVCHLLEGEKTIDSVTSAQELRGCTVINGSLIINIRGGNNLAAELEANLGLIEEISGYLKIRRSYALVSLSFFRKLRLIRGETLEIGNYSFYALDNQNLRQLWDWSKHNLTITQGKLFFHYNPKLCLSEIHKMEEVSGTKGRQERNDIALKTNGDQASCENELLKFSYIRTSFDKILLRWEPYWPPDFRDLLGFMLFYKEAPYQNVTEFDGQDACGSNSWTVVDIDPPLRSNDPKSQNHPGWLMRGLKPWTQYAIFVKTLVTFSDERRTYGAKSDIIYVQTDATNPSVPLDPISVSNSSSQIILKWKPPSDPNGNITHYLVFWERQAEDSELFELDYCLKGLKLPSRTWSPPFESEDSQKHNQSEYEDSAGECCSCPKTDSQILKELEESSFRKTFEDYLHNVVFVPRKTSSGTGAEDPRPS
Sequence of Insulin receptor (P06213 763-1382 limits assumed): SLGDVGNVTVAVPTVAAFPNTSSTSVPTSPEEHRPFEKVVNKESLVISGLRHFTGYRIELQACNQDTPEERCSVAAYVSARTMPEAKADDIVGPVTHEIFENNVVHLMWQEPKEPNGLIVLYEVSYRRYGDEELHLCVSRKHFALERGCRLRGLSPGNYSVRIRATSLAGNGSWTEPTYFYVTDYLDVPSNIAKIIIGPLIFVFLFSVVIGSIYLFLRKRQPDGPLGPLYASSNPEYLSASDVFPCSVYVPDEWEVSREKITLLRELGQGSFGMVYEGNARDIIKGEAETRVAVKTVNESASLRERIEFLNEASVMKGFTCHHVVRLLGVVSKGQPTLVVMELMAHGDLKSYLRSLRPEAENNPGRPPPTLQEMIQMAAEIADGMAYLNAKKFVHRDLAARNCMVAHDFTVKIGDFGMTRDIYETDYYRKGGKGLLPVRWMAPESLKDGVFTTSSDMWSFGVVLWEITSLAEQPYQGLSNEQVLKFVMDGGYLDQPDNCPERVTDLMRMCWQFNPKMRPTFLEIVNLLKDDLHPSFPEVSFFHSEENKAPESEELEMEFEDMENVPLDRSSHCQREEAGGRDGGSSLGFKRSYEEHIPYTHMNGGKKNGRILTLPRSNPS

[9] = biological target: Mitogen-activated protein kinase 7 (Homo sapiens) (UniProt Q13164); conditions: Compound concentration 1000.0 nM
[10] = biological target: Serine/threonine-protein kinase B-raf (Homo sapiens) (UniProt P15056); conditions: Compound concentration 1000.0 nM
[11] = biological target: Casein kinase I isoform alpha (Homo sapiens) (UniProt P48729); conditions: Compound concentration 1000.0 nM
Sequence of Casein kinase I isoform alpha (Homo sapiens) (P48729 2-337 limits assumed): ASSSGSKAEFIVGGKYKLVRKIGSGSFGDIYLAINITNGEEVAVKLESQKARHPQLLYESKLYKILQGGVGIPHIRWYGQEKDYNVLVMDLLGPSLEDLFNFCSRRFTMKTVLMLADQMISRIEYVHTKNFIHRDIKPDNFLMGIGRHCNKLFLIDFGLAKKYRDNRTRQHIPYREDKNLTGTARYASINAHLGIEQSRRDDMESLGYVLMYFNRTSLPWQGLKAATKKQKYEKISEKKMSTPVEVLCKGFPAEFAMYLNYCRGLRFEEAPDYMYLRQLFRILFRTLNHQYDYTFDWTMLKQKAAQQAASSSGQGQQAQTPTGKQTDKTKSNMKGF

[12] = biological target: 3-phosphoinositide-dependent protein kinase 1 (Homo sapiens) (UniProt O15530); conditions: Compound concentration 1000.0 nM
[13] = biological target: Ribosomal protein S6 kinase beta-1 (Homo sapiens) (UniProt P23443); conditions: Compound concentration 1000.0 nM
[14] = biological target: MAP kinase-activated protein kinase 5 (Homo sapiens) (UniProt Q8IW41); conditions: Compound concentration 1000.0 nM
[15] = biological target: Misshapen-like kinase 1 (Homo sapiens) (UniProt Q8N4C8); conditions: Compound concentration 1000.0 nM
Sequence of Misshapen-like kinase 1 (Homo sapiens) (Q8N4C8 whole entry, looked up, canonical isoform): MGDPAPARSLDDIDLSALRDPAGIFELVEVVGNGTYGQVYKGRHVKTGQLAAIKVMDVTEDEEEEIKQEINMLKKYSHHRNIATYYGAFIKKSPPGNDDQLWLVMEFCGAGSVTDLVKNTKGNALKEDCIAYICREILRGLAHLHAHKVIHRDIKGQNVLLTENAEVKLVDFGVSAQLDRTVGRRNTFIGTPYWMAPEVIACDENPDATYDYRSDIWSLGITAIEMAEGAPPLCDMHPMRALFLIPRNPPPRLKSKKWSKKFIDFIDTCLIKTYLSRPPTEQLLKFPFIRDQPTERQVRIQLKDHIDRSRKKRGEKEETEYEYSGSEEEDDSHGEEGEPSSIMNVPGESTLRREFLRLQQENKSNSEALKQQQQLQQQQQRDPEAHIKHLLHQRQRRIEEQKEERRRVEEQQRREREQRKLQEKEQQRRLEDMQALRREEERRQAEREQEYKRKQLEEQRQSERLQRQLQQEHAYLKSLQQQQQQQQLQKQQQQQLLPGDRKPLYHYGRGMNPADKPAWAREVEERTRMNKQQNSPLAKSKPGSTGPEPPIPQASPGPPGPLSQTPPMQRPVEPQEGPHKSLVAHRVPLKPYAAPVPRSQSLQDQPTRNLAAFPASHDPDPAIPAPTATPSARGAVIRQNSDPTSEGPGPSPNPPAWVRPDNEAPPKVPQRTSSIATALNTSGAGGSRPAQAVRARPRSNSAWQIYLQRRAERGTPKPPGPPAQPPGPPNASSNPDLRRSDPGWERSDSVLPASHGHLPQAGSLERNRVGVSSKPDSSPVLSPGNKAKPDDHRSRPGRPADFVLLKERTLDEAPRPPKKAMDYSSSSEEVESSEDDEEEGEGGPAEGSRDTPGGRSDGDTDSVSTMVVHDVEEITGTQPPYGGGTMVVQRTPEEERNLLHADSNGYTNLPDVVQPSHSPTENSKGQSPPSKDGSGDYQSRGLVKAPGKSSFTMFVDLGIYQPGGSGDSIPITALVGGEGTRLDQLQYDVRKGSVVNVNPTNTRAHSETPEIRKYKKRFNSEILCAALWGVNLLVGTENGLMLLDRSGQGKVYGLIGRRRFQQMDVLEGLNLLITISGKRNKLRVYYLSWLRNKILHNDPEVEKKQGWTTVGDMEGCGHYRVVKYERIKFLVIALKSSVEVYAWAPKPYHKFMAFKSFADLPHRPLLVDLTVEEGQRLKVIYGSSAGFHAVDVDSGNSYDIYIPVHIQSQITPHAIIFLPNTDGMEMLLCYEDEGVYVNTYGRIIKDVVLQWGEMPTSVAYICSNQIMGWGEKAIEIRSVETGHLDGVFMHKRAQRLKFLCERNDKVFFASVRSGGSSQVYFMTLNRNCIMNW

[16] = tested on: Phosphatidylinositol 4,5-bisphosphate 3-kinase catalytic subunit alpha isoform (Homo sapiens), P42336 [H1047L]; conditions: Compound concentration 1000.0 nM
[17] = biological target: cAMP-dependent protein kinase catalytic subunit PRKX (Homo sapiens) (UniProt P51817); conditions: Compound concentration 1000.0 nM
[18] = biological target: Wee1-like protein kinase 2 (Homo sapiens) (UniProt P0C1S8); conditions: Compound concentration 1000.0 nM
[19] = biological target: Calcium-dependent protein kinase 1 (Plasmodium falciparum) (UniProt P62344); conditions: Compound concentration 1000.0 nM
[20] = biological target: Serine/threonine-protein kinase Nek9 (Homo sapiens) (UniProt Q8TD19); conditions: Compound concentration 1000.0 nM
[21] = biological target: Calcium/calmodulin-dependent protein kinase kinase 2 (Homo sapiens) (UniProt Q96RR4); conditions: Compound concentration 1000.0 nM
[22] = biological target: Mitogen-activated protein kinase 1 (Homo sapiens) (UniProt P28482); conditions: Compound concentration 1000.0 nM
Sequence of Mitogen-activated protein kinase 1 (Homo sapiens) (P28482 whole entry): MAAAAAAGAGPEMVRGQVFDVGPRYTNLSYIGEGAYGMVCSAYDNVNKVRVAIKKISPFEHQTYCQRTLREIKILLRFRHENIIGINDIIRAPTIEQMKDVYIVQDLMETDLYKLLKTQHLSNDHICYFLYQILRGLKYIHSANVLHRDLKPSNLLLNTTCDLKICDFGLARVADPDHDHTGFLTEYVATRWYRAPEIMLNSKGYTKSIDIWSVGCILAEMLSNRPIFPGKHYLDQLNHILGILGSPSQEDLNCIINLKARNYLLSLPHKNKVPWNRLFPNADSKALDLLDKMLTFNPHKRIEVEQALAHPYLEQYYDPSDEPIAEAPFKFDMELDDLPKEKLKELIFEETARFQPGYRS

[23] = biological target: Serine/threonine-protein kinase PLK3 (Homo sapiens) (UniProt Q9H4B4); conditions: Compound concentration 1000.0 nM
[24] = biological target: Dual specificity protein kinase TTK (Homo sapiens) (UniProt P33981); conditions: Compound concentration 1000.0 nM
[25] = biological target: Phosphatidylinositol 5-phosphate 4-kinase type-2 beta (Homo sapiens) (UniProt P78356); conditions: Compound concentration 1000.0 nM
[26] = biological target: Casein kinase I isoform gamma-2 (Homo sapiens) (UniProt P78368); conditions: Compound concentration 1000.0 nM
D(1B) dopamine receptor = D(1B) dopamine receptor (Homo sapiens, UniProt P21918); assay: GPCRScan assay: inhibition of D5; design: radioligand conc. used [nm] 2.0 – 3.0, parental cells HEKT
[27] = biological target: Beta-3 adrenergic receptor (Homo sapiens, UniProt P13945); conditions: Compound concentration 10.0 uM
Sequence of Beta-3 adrenergic receptor (P13945 whole entry, looked up): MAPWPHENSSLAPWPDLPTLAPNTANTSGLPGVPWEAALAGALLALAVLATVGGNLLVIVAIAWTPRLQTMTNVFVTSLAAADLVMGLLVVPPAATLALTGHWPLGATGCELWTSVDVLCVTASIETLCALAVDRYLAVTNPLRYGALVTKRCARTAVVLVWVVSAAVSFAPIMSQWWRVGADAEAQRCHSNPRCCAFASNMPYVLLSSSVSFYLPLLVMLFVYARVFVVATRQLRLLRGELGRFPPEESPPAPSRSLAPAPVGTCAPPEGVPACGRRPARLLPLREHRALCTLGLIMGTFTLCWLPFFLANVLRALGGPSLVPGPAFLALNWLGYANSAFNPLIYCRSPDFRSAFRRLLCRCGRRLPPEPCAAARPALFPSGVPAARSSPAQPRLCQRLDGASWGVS

[28] = tested on: Tyrosine-protein kinase ABL1 (Homo sapiens), P00519 [H396P]; conditions: Compound concentration 1000.0 nM
[29] = biological target: T1, Alpha-2B adrenergic receptor (Homo sapiens) (UniProt P18089); conditions: Compound concentration 10.0 uM
T1 sequence (whole entry): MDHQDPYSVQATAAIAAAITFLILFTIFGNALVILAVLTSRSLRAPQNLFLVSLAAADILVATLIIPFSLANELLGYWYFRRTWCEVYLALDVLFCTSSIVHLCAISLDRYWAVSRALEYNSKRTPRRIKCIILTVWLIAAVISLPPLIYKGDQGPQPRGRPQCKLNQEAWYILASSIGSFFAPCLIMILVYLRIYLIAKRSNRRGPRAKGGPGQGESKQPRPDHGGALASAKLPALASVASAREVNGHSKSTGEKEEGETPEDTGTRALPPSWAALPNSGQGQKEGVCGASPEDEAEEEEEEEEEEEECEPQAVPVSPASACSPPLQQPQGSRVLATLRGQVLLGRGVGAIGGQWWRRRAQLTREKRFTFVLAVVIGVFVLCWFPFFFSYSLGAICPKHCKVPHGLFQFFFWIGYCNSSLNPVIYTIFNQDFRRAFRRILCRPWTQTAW

[30] = biological target: Dual specificity testis-specific protein kinase 1 (Homo sapiens) (UniProt Q15569); conditions: Compound concentration 1000.0 nM
[31] = biological target: Sodium-dependent dopamine transporter (Homo sapiens, UniProt Q01959); conditions: Compound concentration 10.0 uM
[32] = biological target: Histamine H4 receptor (Homo sapiens) (UniProt Q9H3N8); conditions: Compound concentration 10.0 uM
[33] = biological target: Sodium-dependent serotonin transporter (Homo sapiens, UniProt P31645); conditions: Compound concentration 10.0 uM
[34] = biological target: Cyclin-dependent kinase 18 (Homo sapiens) (UniProt Q07002); conditions: Compound concentration 1000.0 nM
Sequence of Cyclin-dependent kinase 18 (Homo sapiens) (Q07002 whole entry, canonical isoform): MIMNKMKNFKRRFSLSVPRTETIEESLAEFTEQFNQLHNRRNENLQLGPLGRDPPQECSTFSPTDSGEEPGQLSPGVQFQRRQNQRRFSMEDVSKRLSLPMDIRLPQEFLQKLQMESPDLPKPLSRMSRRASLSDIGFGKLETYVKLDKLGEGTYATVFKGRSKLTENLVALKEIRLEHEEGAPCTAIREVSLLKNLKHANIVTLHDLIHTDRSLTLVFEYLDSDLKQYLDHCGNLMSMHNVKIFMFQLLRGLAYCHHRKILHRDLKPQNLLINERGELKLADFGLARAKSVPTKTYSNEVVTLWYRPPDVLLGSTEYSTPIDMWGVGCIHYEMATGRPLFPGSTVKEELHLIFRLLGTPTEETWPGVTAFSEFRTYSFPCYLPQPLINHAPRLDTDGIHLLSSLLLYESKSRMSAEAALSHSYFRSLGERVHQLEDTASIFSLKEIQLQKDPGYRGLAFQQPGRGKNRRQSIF

[35] = biological target: Casein kinase I isoform epsilon (Homo sapiens) (UniProt P49674); conditions: Compound concentration 1000.0 nM
[36] = biological target: Activin receptor type-1-like (Homo sapiens) (UniProt P37023); conditions: Compound concentration 1000.0 nM
[37] = biological target: Serine/threonine-protein kinase SIK1 (Homo sapiens) (UniProt P57059); conditions: Compound concentration 1000.0 nM
Sequence of Serine/threonine-protein kinase SIK1 (Homo sapiens) (P57059 whole entry): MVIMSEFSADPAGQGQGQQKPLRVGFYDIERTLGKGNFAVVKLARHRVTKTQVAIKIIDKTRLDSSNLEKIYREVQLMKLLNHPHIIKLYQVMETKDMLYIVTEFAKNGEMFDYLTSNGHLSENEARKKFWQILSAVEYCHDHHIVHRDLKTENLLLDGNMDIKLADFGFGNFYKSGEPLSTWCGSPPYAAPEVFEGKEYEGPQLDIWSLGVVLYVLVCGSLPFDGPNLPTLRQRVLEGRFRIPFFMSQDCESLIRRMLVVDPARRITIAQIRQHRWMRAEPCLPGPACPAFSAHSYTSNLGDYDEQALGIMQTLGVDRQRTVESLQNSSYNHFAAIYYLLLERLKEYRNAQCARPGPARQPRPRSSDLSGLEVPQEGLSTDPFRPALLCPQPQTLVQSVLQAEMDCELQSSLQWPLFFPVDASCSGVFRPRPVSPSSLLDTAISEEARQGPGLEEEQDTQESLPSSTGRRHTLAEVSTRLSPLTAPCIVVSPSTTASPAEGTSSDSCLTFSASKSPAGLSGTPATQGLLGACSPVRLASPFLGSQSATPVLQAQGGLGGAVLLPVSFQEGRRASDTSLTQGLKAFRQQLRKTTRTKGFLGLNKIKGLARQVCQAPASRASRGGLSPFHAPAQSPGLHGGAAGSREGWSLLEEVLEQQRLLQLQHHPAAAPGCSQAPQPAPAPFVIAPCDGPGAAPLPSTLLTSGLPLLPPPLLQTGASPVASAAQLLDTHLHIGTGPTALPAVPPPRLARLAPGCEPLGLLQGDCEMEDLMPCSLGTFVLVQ

[38] = biological target: Dual specificity mitogen-activated protein kinase kinase 6 (Homo sapiens) (UniProt P52564); conditions: Compound concentration 1000.0 nM

Molecule `Cc1c(C(=O)O)cc(-c2ccc(C3CCNCC3)cc2)c2ccc(-c3ccc(C(F)(F)F)cc3)cc12` [PPTN-NC] has a residual activity [1] of 100%, a residual activity [2] of 100% and a residual activity [3] of 100%. The residual activity [4] was 100%, the residual activity [5] was 100% and the residual activity [6] was 100%. It also gave a residual activity [7] of 100%, a residual activity [8] of 100% and a residual activity (Insulin receptor) of 100%. For the same molecule, the residual activity [9] was 100%, the residual activity [10] was 100% and the residual activity [11] was 81%. It also gave a residual activity [12] of 100%, a residual activity [13] of 100% and a residual activity [14] of 100%. For the same molecule, the residual activity [15] was 100%, the residual activity [16] was 100% and the residual activity [17] was 100%. The residual activity [18] was 100%, the residual activity [19] was 100% and the residual activity [20] was 100%. For the same molecule, the residual activity [21] was 100%, the residual activity [22] was 100% and the residual activity [23] was 100%. It also gave a residual activity [24] of 100%, a residual activity [25] of 86% and a residual activity [26] of 100%. For the same molecule, the Ki (D(1B) dopamine receptor) was 2860 nM, the inhibition [27] was 57.5% and the residual activity [28] was 72%. The inhibition [29] was 79%, the residual activity [30] was 93% and the inhibition [31] was 31.2%. For the same molecule, the inhibition [32] was -4.71%, the inhibition [33] was -7.91% and the residual activity [34] was 100%. The residual activity [35] was 96%, the residual activity [36] was 100% and the residual activity [37] was 94%. It also gave a residual activity [38] of 100%.
For `O=C(O)c1cc(-c2ccc(C3CCNCC3)cc2)c2ccc(-c3ccc(C(F)(F)F)cc3)cc2c1` [PPTN], the residual activity [1] was 100%, the residual activity [2] was 100% and the residual activity [3] was 100%. The residual activity [4] was 100%, the residual activity [5] was 100% and the residual activity [6] was 100%. For the same molecule, the residual activity [7] was 100%, the residual activity [8] was 100% and the residual activity (Insulin receptor) was 100%. For the same molecule, the residual activity [9] was 100%, the residual activity [10] was 100% and the residual activity [11] was 83%. It also gave a residual activity [12] of 100%, a residual activity [13] of 100% and a residual activity [14] of 100%. The residual activity [15] was 98%, the residual activity [16] was 100% and the residual activity [17] was 100%. The residual activity [18] was 100%, the residual activity [19] was 100% and the residual activity [20] was 100%. For the same molecule, the residual activity [21] was 100%, the residual activity [22] was 97% and the residual activity [23] was 100%. The residual activity [24] was 100%, the residual activity [25] was 91% and the residual activity [26] was 100%. It also gave a Ki (D(1B) dopamine receptor) of 2820 nM, an inhibition [27] of 65.2% and a residual activity [28] of 62%. It also gave an inhibition [29] of 85.4%, a residual activity [30] of 100% and an inhibition [31] of 37.7%. The inhibition [32] was -6.7%, the inhibition [33] was -2.04% and the residual activity [34] was 100%. For the same molecule, the residual activity [35] was 100%, the residual activity [36] was 100% and the residual activity [37] was 100%. The residual activity [38] was 100%.
